Read-outs that look alike come from different tables or passages of the source. Values belong to the compound of their own block, whether it stands above or below them.
What was measured:
Experiment in all cases: biochemical
Set-up in all cases: DiscoveRx KINOMEscan active site-directed competition binding; percent of control kinase bound to immobilised ligand
EPHA8 = molecular target: T1, EPHA8 (Homo sapiens, UniProt P29322)
T1 sequence (P29322 1-1005): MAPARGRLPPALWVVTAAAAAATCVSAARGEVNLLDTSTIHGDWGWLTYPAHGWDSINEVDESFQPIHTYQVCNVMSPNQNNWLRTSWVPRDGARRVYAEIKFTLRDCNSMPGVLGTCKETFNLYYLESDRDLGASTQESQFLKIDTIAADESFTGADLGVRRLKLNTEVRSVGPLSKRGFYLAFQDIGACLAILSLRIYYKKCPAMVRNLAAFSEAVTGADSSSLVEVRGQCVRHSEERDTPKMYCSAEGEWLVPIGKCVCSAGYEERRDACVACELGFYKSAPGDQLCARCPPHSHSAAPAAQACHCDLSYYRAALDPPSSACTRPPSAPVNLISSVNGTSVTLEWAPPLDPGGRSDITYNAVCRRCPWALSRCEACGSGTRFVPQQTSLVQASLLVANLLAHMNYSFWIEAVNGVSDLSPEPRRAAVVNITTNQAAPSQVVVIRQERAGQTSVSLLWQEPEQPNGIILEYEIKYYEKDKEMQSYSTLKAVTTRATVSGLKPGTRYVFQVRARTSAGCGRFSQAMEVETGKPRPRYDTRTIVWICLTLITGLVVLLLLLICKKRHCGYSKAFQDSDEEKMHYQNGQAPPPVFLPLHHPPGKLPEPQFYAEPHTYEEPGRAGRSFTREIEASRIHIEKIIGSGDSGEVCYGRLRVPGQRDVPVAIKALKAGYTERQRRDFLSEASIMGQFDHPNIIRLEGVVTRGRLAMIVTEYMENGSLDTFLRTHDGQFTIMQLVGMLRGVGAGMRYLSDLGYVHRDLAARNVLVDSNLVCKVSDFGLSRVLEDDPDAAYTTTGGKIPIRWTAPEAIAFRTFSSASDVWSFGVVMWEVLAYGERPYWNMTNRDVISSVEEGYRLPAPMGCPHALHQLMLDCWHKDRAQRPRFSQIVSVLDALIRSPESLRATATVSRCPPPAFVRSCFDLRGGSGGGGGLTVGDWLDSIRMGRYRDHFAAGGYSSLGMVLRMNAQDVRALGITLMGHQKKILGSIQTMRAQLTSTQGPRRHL

RIPK2 = RIPK2 (Homo sapiens, UniProt O43353)
RIPK2, sequence (O43353 whole entry): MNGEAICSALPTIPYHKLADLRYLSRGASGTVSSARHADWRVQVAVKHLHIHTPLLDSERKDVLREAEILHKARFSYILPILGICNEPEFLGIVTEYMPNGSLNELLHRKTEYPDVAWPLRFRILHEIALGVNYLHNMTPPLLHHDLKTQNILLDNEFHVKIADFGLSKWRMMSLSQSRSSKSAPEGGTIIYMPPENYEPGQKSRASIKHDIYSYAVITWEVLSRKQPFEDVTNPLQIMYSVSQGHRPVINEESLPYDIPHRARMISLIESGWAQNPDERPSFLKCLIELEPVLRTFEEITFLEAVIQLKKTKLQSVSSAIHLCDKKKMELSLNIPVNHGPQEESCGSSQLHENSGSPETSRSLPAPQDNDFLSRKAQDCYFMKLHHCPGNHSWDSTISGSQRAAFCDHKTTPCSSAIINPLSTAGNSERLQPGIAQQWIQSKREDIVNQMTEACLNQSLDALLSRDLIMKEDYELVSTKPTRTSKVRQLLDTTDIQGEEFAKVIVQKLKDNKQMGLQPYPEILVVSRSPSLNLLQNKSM

EPHB3 = molecular target: T2, EPHB3 (Homo sapiens, UniProt P54753)
T2 sequence (P54753 1-998): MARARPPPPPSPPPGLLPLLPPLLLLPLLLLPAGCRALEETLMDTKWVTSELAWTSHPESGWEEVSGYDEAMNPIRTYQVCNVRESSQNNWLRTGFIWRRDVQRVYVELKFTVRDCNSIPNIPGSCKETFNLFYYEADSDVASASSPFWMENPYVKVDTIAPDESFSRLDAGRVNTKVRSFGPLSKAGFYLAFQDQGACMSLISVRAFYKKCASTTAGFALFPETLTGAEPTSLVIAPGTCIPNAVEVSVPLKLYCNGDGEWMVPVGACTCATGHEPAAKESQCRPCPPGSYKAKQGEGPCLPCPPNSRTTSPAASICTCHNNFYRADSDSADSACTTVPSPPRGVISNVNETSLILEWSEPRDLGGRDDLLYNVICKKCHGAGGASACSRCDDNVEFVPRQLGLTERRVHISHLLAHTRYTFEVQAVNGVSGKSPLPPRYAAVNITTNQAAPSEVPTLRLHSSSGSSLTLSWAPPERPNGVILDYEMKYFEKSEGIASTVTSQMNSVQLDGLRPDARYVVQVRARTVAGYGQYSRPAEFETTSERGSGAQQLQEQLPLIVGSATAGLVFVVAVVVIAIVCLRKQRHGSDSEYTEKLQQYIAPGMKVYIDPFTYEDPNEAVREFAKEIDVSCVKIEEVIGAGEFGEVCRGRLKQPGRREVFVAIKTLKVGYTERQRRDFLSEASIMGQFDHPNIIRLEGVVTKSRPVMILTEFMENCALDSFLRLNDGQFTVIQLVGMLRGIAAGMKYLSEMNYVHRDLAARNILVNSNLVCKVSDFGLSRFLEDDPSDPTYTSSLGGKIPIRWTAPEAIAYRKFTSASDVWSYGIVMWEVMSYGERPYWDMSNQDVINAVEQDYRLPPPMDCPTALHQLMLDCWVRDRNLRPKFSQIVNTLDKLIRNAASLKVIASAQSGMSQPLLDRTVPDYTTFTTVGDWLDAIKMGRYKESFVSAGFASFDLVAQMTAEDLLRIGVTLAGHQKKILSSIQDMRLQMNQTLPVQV

FES = FES (Homo sapiens, UniProt P07332)
FES, sequence (P07332 whole entry): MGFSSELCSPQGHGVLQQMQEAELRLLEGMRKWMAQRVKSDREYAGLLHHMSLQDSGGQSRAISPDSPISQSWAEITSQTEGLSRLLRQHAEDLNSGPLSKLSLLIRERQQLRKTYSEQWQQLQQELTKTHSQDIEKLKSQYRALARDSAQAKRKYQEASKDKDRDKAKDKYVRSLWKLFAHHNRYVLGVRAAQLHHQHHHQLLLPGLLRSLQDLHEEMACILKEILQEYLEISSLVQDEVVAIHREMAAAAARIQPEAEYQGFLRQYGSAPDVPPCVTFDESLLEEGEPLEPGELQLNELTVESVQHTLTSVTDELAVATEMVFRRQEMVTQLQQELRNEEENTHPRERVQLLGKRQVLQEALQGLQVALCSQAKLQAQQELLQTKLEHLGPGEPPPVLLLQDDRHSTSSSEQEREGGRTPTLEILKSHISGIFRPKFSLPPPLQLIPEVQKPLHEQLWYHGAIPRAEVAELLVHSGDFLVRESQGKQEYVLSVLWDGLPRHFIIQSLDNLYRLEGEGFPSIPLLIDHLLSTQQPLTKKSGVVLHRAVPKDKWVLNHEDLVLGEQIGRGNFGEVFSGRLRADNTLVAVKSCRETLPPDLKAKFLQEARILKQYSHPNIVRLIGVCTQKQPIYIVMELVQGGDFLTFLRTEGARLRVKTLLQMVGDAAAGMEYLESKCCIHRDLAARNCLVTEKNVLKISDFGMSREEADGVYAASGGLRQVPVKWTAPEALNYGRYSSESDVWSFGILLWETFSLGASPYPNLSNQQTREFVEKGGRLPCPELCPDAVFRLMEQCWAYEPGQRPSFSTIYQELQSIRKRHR

CDK8 = CDK8 (Homo sapiens, UniProt P49336)
CDK8, sequence (P49336 whole entry): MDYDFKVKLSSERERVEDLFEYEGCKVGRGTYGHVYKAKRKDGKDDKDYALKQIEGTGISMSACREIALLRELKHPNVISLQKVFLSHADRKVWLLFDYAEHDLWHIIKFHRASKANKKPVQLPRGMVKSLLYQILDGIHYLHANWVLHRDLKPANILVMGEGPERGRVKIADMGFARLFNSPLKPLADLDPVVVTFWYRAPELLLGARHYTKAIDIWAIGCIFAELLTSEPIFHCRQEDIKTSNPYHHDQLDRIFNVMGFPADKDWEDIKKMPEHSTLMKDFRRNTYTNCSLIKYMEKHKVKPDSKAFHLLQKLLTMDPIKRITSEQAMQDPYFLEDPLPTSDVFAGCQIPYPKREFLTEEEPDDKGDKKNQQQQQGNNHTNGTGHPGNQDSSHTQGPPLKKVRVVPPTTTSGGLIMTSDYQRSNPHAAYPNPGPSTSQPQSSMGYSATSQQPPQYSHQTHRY

PIK3CA(Q546K) = PIK3CA(Q546K) (Homo sapiens, UniProt P42336, Q546K)
PIK3CA(Q546K), sequence (P42336 whole entry Q546K): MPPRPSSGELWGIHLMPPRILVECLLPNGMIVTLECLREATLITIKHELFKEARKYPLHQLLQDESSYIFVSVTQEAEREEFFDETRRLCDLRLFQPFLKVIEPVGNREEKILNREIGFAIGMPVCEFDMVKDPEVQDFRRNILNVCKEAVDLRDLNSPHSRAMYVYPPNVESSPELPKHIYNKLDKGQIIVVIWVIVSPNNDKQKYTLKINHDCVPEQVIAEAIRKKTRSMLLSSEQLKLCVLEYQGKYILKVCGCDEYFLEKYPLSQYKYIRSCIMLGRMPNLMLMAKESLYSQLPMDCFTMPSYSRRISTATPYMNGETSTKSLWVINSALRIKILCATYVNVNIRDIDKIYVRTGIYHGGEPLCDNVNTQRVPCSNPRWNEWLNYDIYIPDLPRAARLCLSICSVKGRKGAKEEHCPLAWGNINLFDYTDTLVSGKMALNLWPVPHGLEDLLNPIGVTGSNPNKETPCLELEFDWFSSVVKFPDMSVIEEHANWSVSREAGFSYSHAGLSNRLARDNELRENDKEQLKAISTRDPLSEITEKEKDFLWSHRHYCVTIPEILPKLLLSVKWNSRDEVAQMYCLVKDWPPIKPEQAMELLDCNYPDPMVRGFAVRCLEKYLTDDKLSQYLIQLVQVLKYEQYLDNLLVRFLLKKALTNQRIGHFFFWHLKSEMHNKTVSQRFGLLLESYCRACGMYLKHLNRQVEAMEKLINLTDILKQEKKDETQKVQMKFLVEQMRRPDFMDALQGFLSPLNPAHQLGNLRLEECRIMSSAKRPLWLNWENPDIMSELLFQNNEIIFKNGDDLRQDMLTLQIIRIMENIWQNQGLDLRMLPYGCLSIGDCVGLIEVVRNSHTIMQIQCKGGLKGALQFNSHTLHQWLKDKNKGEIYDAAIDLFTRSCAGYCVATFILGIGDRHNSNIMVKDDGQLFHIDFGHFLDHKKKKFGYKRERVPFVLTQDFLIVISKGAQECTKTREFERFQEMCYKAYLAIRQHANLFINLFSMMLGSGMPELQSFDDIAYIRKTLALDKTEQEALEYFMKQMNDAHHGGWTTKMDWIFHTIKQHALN

[1] = read-out: Olaparib / %Ctrl @ 10000nM
[2] = read-out: Talazoparib (BMN 673) / %Ctrl @ 10000nM
[3] = read-out: Rucaparib / %Ctrl @ 10000nM, binding competition, % of control
[4] = read-out: Niraparib (MK-4827) / %Ctrl @ 10000nM

percent of control binding at 10 µM (EPHA8; [1]): 98%
percent of control binding at 10 µM (RIPK2; [1]): 93%
percent of control binding at 10 µM (EPHB3; [1]): 87%
percent of control binding at 10 µM (FES; [1]): 92%
percent of control binding at 10 µM (CDK8; [1]): 100%
percent of control binding at 10 µM (PIK3CA(Q546K); [1]): 90%
Structure (SMILES): O=C(c1cc(Cc2n[nH]c(=O)c3ccccc23)ccc1F)N1CCN(C(=O)C2CC2)CC1 [Olaparib]

percent of control binding at 10 µM (EPHA8; [2]): 96%
percent of control binding at 10 µM (RIPK2; [2]): 100%
percent of control binding at 10 µM (EPHB3; [2]): 100%
percent of control binding at 10 µM (FES; [2]): 98%
percent of control binding at 10 µM (CDK8; [2]): 99%
percent of control binding at 10 µM (PIK3CA(Q546K); [2]): 100%
Structure (SMILES): Cn1ncnc1[C@H]1c2n[nH]c(=O)c3cc(F)cc(c23)N[C@@H]1c1ccc(F)cc1 [Talazoparib]

percent of control binding at 10 µM (EPHA8; [3]): 100%
percent of control binding at 10 µM (RIPK2; [3]): 88%
percent of control binding at 10 µM (EPHB3; [3]): 99%
percent of control binding at 10 µM (FES; [3]): 94%
percent of control binding at 10 µM (CDK8; [3]): 86%
percent of control binding at 10 µM (PIK3CA(Q546K); [3]): 93%
Structure (SMILES): CNCc1ccc(-c2[nH]c3cc(F)cc4c3c2CCNC4=O)cc1 [Rucaparib]

Structure (SMILES): NC(=O)c1cccc2cn(-c3ccc([C@@H]4CCCNC4)cc3)nc12 [Niraparib]
percent of control binding at 10 µM (EPHA8; [4]): 80%
percent of control binding at 10 µM (RIPK2; [4]): 78%
percent of control binding at 10 µM (EPHB3; [4]): 82%
percent of control binding at 10 µM (FES; [4]): 83%
percent of control binding at 10 µM (CDK8; [4]): 68%
percent of control binding at 10 µM (PIK3CA(Q546K); [4]): 100%

From publication PMC7026418, “The kinase polypharmacology landscape of clinical PARP inhibitors” (Scientific Reports, 2020)
